Patent US7186743B2, “Substituted pyrazolyl compounds for the treatment of inflammation” (Pharmacia Corporation, priority 2001, dated 2007)
pIC50: −log10 of the molar value. Structures can show the parent of a compound that is named as a salt. Where two headings read alike, the source gives them in different places.

Target: T1, IKK2 (Homo sapiens, UniProt O14920)
T1 construct: made in house; host or cells: insect cells (baculovirus, pFastBac; SF9)
T1 sequence (O14920 1-756): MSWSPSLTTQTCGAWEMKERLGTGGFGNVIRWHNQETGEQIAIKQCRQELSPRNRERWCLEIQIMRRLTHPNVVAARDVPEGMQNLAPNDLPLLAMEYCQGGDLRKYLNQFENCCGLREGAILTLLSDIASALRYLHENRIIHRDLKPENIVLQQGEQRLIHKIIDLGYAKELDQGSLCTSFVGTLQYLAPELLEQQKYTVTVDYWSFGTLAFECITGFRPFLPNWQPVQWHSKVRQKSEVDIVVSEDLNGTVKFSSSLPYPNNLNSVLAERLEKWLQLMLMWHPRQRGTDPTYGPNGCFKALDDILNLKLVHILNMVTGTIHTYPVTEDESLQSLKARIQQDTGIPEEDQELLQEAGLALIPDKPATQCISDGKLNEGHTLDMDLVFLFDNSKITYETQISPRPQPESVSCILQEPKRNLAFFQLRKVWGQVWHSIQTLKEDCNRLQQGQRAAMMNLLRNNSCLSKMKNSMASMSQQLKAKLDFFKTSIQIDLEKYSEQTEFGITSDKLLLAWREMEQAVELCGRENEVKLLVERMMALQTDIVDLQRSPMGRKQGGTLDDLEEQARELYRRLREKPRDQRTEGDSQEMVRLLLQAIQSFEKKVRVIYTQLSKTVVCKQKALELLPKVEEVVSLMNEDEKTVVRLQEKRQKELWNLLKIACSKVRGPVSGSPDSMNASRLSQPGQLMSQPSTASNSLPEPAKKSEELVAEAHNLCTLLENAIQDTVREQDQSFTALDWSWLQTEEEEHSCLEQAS
Experiment: IKKβ Resin Enzyme Assay (IKK2 resin)
Format: biochemical
Summary of the method: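 Radiometric test: [γ-33P]ATP incorporation into a biotinylated IκBα peptide, 30 min at 25° C, pH 7.6 Hepes with MgCl2/MnCl2 and 1 μM cold ATP. Reaction is quenched with Dowex resin and the supernatant is counted. Kinase is FLAG-purified homodimeric recombinant human IKK2 from insect cells.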

[1] = Table 3, read-out: IKK Resin IC50
[2] = Table 2, read-out: IKK Resin IC50
[3] = Table 6, read-out: IKK2 Resin IC 50
[4] = Table 14, read-out: IKK2 Resin IC50
[5] = Table 4, read-out: IKK2 Resin IC50
[6] = Table 21, read-out: IKK2 Resin IC50
[7] = Table 9, read-out: IKK2 Resin IC50

Question: How did the pIC50 [1] turn out when `CS(=O)(=O)c1ccc(-n2nc(C(N)=O)c3c2-c2cc(NC(=O)c4ccc(C(F)(F)F)cc4[N+](=O)[O-])ccc2CC3)cc1` [Example 152, 1-[4-(methylsulfonyl)phenyl]-8-{[2-nitro-4-(trifluoromethyl)benzoyl]amino}-4,5-dihydro-1H-benzo[g]indazole-3-carboxamide] was run?
Answer: Its pIC50 is at least 6.00.

Question: How did the pIC50 (Table 18, read-out: IKK2 Resin IC50) turn out when `CCS(=O)(=O)c1ccc(-n2nc(C(N)=O)c3c2-c2cc(NC(=O)c4cccnc4Cl)ccc2CC3)cc1` [Example 396, 8-{[(2-chloropyridin-3-yl)carbonyl]amino}-1-[4-(ethylsulfonyl)phenyl]-4,5-dihydro-1H-benzo[g]indazole-3-carboxamide] was run?
Answer: The pIC50 was at least 6.00.

Question: How did the pIC50 [2] turn out when `CN1CCN(c2ccc(Cl)c(C(=O)Nc3ccc4c(c3)-c3c(c(C(N)=O)nn3-c3ccc(S(C)(=O)=O)cc3)CC4)c2)CC1` [Example 126, 8-{[2-chloro-5-(4-methylpiperazin-1-yl)benzoyl]amino}-1-[4-(methylsulfonyl)phenyl]-4,5-dihydro-1H-benzo[g]indazole-3-carboxamide] was run?
Answer: Its pIC50 is at least 6.00.

Question: `Cc1ncccc1C(=O)Nc1ccc2c(c1)-c1c(c(C(N)=O)nn1-c1ccc(S(C)(=O)=O)cc1)CC2` [Example 100] was tested. Which pIC50 [2] did it give?
Answer: Its pIC50 is at least 6.00.

Question: How did the pIC50 [3] turn out when `COc1cc(Cl)c(C(=O)Nc2ccc3c(c2)-c2c(c(C(N)=O)nn2-c2ccc(F)cc2)CC3)cc1OC` [Example 239, 8-[(2-chloro-4,5-dimethoxybenzoyl)amino]-1-(4-fluorophenyl)-4,5-dihydro-1H-benzo[g]indazole-3-carboxamide] was run?
Answer: The pIC50 was at least 6.00.

Question: `CS(=O)(=O)c1ccc(-n2nc(C(N)=O)c3c2-c2cc(NC(=O)c4cc5c(cc4Cl)OCO5)ccc2CC3)cc1` [Example 125, 8-{[(6-chloro-1,3-benzodioxol-5-yl)carbonyl]amino}-1-[4-(methylsulfonyl)phenyl]-4,5-dihydro-1H-benzo[g]indazole-3-carboxamide] was tested. Which pIC50 [2] did it give?
Answer: Its pIC50 is at least 6.00.

Question: `CC(C)CNCC(=O)Nc1ccc2c(c1)-c1c(c(C(N)=O)nn1-c1ccc3c(c1)OCO3)CC2` [Example 451, 1-(1,3-benzodioxol-5-yl)-8-[(N-isobutylglycyl)amino]-4,5-dihydro-1H-benzo[g]indazole-3-carboxamide] was tested. Which pIC50 (Table 23, read-out: IKK2 Resin IC50) did it give?
Answer: Its pIC50 is at least 6.00.

Question: How did the pIC50 [4] turn out when `NC(=O)c1nn(-c2ccc(F)c(F)c2)c2c1CCc1ccc(NC(=O)c3cccnc3Cl)cc1-2` [Example 364, 8-{[(2-chloropyridin-3-yl)carbonyl]amino}-1-(3,4-difluorophenyl)-4,5-dihydro-1H-benzo[g]indazole-3-carboxamide] was run?
Answer: The pIC50 was at least 6.00.

Question: `CS(=O)(=O)c1ccc(-n2nc(C(N)=O)c3c2-c2cc(NC(=O)c4ccccc4Cl)ccc2CC3)cc1` [Example 95, 8-[(2-chlorobenzoyl)animo]-1-[4-(methylsulfonyl)phenyl]-4,5-dihydro-1H-benzo[g]indazole-3-carboxamide] was tested. Which pIC50 [2] did it give?
Answer: Its pIC50 is at least 6.00.

Question: How did the pIC50 (Table 11, read-out: IKK2 Resin IC50) turn out when `CC(=O)CCc1ccc(-n2nc(C(N)=O)c3c2-c2cc(NC(=O)c4cccnc4Cl)ccc2CC3)cc1` [Example 302, 8-{[(2-chloropyridin-3-yl)carbonyl]amino}-1-[4-(3-oxobutyl)phenyl]-4,5-dihydro-1H-benzo[g]indazole-3-carboxamide] was run?
Answer: The pIC50 was at least 6.00.

Question: With `NC(=O)c1nn(-c2cccc(O)c2)c2c1CCc1ccc(NC(=O)c3ccncc3Cl)cc1-2` [Example 281, 8-[(3-chloroisonicotnoyl)amino]-1-(3-hydroxyphenyl)-4,5-dihydro-1H-benzo[g]indazole-3-carboxamide] as the compound, how does the pIC50 (Table 10, read-out: IKK2 Resin IC50) read?
Answer: The pIC50 was at least 6.00.

Question: How did the pIC50 (Table for Examples 381-385 (headed TABLE 14), read-out: IKK2 Resin IC50) turn out when `NC(=O)c1nn(-c2cccs2)c2c1CCc1ccc(NC(=O)c3ccncc3Cl)cc1-2` [Example 382, 8-[(3-chloroisonicotinoyl)amino]-1-thien-2-yl-4,5-dihydro-1H-benzo[g]indazole-3-carboxamide] was run?
Answer: The pIC50 was at least 6.00.

Question: `CS(=O)(=O)c1ccc(-n2nc(C(N)=O)c3c2-c2cc(NC(=O)c4ccc(N=[N+]=[N-])cc4)ccc2CC3)cc1` [Example 122, 8-[(4-azidobenzoyl)amino]-1-[4-(methylsulfonyl)phenyl]-4,5-dihydro-1H-benzo[g]indazole-3-carboxamide] was tested. Which pIC50 [2] did it give?
Answer: The pIC50 was at least 6.00.

Question: With `CS(=O)(=O)c1ccc(-n2nc(C(N)=O)c3c2-c2cc(NC(=O)c4cccc(Cl)c4Cl)ccc2CC3)cc1` [Example 96, 8-[(2,3-dichlorobenzoyl)amino]-1-[4-(methylsulfonyl)phenyl]-4,5-dihydro-1H-benzo[g]indazole-3-carboxamide] as the compound, how does the pIC50 [2] read?
Answer: Its pIC50 is at least 6.00.

Question: `NC(=O)c1nn(-c2ccc(F)cc2)c2c1CCc1ccc(NC(=O)c3cccc(Cl)c3Cl)cc1-2` [Example 238, 8-[(2,3-dichlorobenzoyl)amino]-1-(4-fluorophenyl)-4,5-dihydro-1Hbenzo[g]indazole-3-carboxamide] was tested. Which pIC50 [3] did it give?
Answer: Its pIC50 is at least 6.00.

Question: How did the pIC50 [5] turn out when `CSc1ccc(Cl)c(C(=O)Nc2ccc3c(c2)-c2c(c(C(N)=O)nn2-c2ccc4c(c2)OCO4)CC3)c1` [Example 190, 1-(1,3-benzodioxol-5-yl)-8-{2-chloro-5-[2-(methylthio)benzoyl]amino}-4,5-dihydro-1H-benzo[g]indazole-3-carboxamide] was run?
Answer: The pIC50 was at least 6.00.

Question: How did the pIC50 [6] turn out when `CN(C)S(=O)(=O)c1ccc(-n2nc(C(N)=O)c3c2-c2cc(NS(C)(=O)=O)ccc2CC3)cc1` [Example 426, 1-{4-[(dimethylamino)sulfonyl]phenyl}-8-[(methylsulfonyl)amino]-4,5-dihydro-1H-benzo[g]indazole-3-carboxamide] was run?
Answer: Its pIC50 is at least 6.00.

Question: `NC(=O)c1nn(-c2ccc(F)cc2)c2c1CCc1ccc(NC(=O)c3ccncc3Cl)cc1-2` [Example 228, 8-[(3-chloroisonicotinoyl)amino]1-(4-fluorophenyl)-4,5-dihydro-1H-benzo[g]indazole-3-carboxamide hydrochloride] was tested. Which pIC50 [3] did it give?
Answer: The pIC50 was at least 6.00.

Question: `NC(=O)c1nn(-c2ccc([N+](=O)[O-])cc2)c2c1CCc1ccc(NC(=O)c3ccccc3Cl)cc1-2` [Example 324, 8-[(2-chlorobenzoyl)amino]-1-(4-nitrophenyl)-4,5-dihydro-1H-benzo[g]indazole-3-carboxamide] was tested. Which pIC50 [4] did it give?
Answer: Its pIC50 is at least 6.00.

Question: With `CS(=O)(=O)c1ccc(-n2nc(C(N)=O)c3c2-c2cc(NC(=O)c4ccc([N+](=O)[O-])cc4[N+](=O)[O-])ccc2CC3)cc1` [Example 155, 8-[(2,4-dinitrobenzoyl)animo]-1-[4-(methylsulfonyl)phenyl]-4,5-dihydro-1H-benzo[g]indazole-3-carboxamide] as the compound, how does the pIC50 [1] read?
Answer: Its pIC50 is at least 6.00.

Question: With `CS(=O)(=O)c1ccc(-n2nc(C(N)=O)c3c2-c2cc(NC(=O)c4cc(F)ccc4[N+](=O)[O-])ccc2CC3)cc1` [Example 151, 8-[(5-fluoro-2-nitrobenzoyl)amino]-1-[4-(methylsulfonyl)phenyl]-4,5-dihydro-1H-benzo[g]indazole-3-carboxamide] as the compound, how does the pIC50 [1] read?
Answer: The pIC50 was at least 6.00.

Question: With `C#CCN(CC#C)S(=O)(=O)c1ccc(-n2nc(C(N)=O)c3c2-c2cc(N)ccc2CC3)cc1` [Example 425, 8-amino-1-{4-[(diprop-2-ynylamino)sulfonyl]phenyl}-4,5-dihydro-1H-benzo[g]indazole-3-carboxamide] as the compound, how does the pIC50 [6] read?
Answer: Its pIC50 is at least 6.00.

Question: How did the pIC50 (Table 8, read-out: IKK2 Resin IC50) turn out when `NC(=O)c1nn(-c2ccc(OCc3ccccc3)cc2)c2c1CCc1ccc(NC(=O)c3ccccc3Cl)cc1-2` [Example 259, 1-[4-(benzyloxy)phenyl]-8-[(2-chlorobenzoyl)amino]-4,5-dihydro-1H-benzo[g]indazole-3-carboxamide] was run?
Answer: The pIC50 was under 5.00.

Question: With `NC(=O)c1nn(-c2ccccc2)c2c1CCc1ccc(NC(=O)c3ccncc3Cl)cc1-2` [Example 331, 8-[(3-chloroisonicotinoyl)amino]-1-phenyl-4,5-dihydro-1H-benzo[g]indazole-3-carboxamide] as the compound, how does the pIC50 [4] read?
Answer: The pIC50 was at least 6.00.

Question: `CN(C)c1ccc(Cl)c(C(=O)Nc2ccc3c(c2)-c2c(c(C(N)=O)nn2-c2ccc4c(c2)OCO4)CC3)c1` [Example 183, 1-(1,3-benzodioxol-5-yl)-8-{[2-chloro-5-(dimethylamino)benzoyl]amino}-4,5-dihydro-1H-benzo[g]indazole-3-carboxamide] was tested. Which pIC50 [5] did it give?
Answer: Its pIC50 is at least 6.00.

Question: With `CC1(C)OCC(COc2cccc(-n3nc(C(N)=O)c4c3-c3cc(NC(=O)c5ccncc5Cl)ccc3CC4)c2)O1` (stereo not drawn) [Example 275, 8-[(3-chloroisonicotinoyl)amino]-1-{3-[(2,2-dimethyl-1,3-dioxolan-4-yl)methoxy]phenyl}-4,5-dihydro-1H-benzo[g]indazole-3-carboxamide] as the compound, how does the pIC50 [7] read?
Answer: The pIC50 was 5.00 to 6.00.

Question: `NC(=O)c1nn(-c2ccc(OCCN3CCOCC3)cc2)c2c1CCc1ccc(NC(=O)c3ccccc3Cl)cc1-2` [Example 264, 8-[(2-chlorobenzoyl)amino]-1-[4-(2-morpholin-4-ylethoxy)phenyl]-4,5-dihydro-1H-benzo[g]indazole-3-carboxamide] was tested. Which pIC50 [7] did it give?
Answer: Its pIC50 is at least 6.00.
